How the values were obtained:
RyR2 = assay: Single channel electrophysiology of RyR2 channels inserted into lipid bilayers (exposure to peptide); assay type: biochemical, sheep (cardiac SR)
Method: Cardiac SR was prepared from mature female crossbred sheep hearts, and skeletal SR vesicles were isolated from the back and leg muscles of mature female New Zealand white rabbits[29],[54] with approval from the ANU Animal Experiment Ethics Committee Protocol Number A2015/35. […] Solutions for vesicle incorporation contained (mM): cis 230 caesium methanesulfonate (CsMS); 20 CsCl; 1 CaCl2 and 10 […] (TES) pH 7.4 and trans 30 CsMS; 20 CsCl; 1 CaCl2 10 TES; pH 7.4. […] Following incorporation, 200 mM CsMS was added to the trans solution and the cis solution exchanged with recording solution containing (mM): 230 CsMS; 20 CsCl; 0.001 CaCl2;10 TES and pH 7.4, with [Ca^2+] set by a [BAPTA] determined using a Ca^2+ electrode. The cytoplasmic and luminal solutions contained 1 μM and 1 mM Ca^2+ respectively, with symmetrical 250/250 mM CsMS. Bilayer voltage was switched between +40 mV and −40 mV (cytoplasmic voltage relative to grounded luminal solution) every 30 s. The activity of the RyR channels used here included 1 µM Ca^2+ in the cytoplasmic solution and 1 mM Ca^2+ in the luminal solution[29],[55]. Electrophysiology experiments were analysed using Channel 2 (P.W. Gage, M. Smith, Australian National University) and Channel 3 (N.W. Laver, University of Newcastle, Australia) software, available from the authors upon request. Statistical analyses were performed using Microsoft Excel (Office 365). […] Following most incorporation events, a single channel only was active in the bilayer and channel open probability (Po), mean open time (To), mean closed time (Tc) and open event frequency (Fo) were measured. When 2–4 channels were active in a bilayer, PO was approximated from the fractional mean current (I’F), i.e., mean current divided by maximum current. I’F is equal to PO in a single channel and indicates the average PO of multiple channels in a bilayer. […] Experiments at UN also included a minority of multi-channel experiments. The bilayer rigs, solution composition, source of channels, data acquisition and analyses methods were all identical.
Statistical analysis of single channel data was performed using Excel spreadsheets and embedded Students t-test functions or a sign test as indicated in the graphs in Figs. 1 and 3.

ryanodine receptor = molecular target: T1, ryanodine receptor (Oryctolagus cuniculus, UniProt P11716); assay: Single channel recording, washout (Woearly, Wolate) after Xt3a, sheet "Figure 3B" (RyR isoform not given); assay type: biochemical
T1 construct: skeletal SR vesicles were isolated from the back and leg muscles of mature female New Zealand white rabbits; from tissue; host or cells: rabbit back and leg skeletal muscle, sarcoplasmic reticulum vesicles
Description: Supplement 41467_2023_36579_MOESM6_ESM.xlsx, sheet "Figure 3B" | column: Woearly; Wolate

T1 sequence (P11716 whole entry, canonical isoform): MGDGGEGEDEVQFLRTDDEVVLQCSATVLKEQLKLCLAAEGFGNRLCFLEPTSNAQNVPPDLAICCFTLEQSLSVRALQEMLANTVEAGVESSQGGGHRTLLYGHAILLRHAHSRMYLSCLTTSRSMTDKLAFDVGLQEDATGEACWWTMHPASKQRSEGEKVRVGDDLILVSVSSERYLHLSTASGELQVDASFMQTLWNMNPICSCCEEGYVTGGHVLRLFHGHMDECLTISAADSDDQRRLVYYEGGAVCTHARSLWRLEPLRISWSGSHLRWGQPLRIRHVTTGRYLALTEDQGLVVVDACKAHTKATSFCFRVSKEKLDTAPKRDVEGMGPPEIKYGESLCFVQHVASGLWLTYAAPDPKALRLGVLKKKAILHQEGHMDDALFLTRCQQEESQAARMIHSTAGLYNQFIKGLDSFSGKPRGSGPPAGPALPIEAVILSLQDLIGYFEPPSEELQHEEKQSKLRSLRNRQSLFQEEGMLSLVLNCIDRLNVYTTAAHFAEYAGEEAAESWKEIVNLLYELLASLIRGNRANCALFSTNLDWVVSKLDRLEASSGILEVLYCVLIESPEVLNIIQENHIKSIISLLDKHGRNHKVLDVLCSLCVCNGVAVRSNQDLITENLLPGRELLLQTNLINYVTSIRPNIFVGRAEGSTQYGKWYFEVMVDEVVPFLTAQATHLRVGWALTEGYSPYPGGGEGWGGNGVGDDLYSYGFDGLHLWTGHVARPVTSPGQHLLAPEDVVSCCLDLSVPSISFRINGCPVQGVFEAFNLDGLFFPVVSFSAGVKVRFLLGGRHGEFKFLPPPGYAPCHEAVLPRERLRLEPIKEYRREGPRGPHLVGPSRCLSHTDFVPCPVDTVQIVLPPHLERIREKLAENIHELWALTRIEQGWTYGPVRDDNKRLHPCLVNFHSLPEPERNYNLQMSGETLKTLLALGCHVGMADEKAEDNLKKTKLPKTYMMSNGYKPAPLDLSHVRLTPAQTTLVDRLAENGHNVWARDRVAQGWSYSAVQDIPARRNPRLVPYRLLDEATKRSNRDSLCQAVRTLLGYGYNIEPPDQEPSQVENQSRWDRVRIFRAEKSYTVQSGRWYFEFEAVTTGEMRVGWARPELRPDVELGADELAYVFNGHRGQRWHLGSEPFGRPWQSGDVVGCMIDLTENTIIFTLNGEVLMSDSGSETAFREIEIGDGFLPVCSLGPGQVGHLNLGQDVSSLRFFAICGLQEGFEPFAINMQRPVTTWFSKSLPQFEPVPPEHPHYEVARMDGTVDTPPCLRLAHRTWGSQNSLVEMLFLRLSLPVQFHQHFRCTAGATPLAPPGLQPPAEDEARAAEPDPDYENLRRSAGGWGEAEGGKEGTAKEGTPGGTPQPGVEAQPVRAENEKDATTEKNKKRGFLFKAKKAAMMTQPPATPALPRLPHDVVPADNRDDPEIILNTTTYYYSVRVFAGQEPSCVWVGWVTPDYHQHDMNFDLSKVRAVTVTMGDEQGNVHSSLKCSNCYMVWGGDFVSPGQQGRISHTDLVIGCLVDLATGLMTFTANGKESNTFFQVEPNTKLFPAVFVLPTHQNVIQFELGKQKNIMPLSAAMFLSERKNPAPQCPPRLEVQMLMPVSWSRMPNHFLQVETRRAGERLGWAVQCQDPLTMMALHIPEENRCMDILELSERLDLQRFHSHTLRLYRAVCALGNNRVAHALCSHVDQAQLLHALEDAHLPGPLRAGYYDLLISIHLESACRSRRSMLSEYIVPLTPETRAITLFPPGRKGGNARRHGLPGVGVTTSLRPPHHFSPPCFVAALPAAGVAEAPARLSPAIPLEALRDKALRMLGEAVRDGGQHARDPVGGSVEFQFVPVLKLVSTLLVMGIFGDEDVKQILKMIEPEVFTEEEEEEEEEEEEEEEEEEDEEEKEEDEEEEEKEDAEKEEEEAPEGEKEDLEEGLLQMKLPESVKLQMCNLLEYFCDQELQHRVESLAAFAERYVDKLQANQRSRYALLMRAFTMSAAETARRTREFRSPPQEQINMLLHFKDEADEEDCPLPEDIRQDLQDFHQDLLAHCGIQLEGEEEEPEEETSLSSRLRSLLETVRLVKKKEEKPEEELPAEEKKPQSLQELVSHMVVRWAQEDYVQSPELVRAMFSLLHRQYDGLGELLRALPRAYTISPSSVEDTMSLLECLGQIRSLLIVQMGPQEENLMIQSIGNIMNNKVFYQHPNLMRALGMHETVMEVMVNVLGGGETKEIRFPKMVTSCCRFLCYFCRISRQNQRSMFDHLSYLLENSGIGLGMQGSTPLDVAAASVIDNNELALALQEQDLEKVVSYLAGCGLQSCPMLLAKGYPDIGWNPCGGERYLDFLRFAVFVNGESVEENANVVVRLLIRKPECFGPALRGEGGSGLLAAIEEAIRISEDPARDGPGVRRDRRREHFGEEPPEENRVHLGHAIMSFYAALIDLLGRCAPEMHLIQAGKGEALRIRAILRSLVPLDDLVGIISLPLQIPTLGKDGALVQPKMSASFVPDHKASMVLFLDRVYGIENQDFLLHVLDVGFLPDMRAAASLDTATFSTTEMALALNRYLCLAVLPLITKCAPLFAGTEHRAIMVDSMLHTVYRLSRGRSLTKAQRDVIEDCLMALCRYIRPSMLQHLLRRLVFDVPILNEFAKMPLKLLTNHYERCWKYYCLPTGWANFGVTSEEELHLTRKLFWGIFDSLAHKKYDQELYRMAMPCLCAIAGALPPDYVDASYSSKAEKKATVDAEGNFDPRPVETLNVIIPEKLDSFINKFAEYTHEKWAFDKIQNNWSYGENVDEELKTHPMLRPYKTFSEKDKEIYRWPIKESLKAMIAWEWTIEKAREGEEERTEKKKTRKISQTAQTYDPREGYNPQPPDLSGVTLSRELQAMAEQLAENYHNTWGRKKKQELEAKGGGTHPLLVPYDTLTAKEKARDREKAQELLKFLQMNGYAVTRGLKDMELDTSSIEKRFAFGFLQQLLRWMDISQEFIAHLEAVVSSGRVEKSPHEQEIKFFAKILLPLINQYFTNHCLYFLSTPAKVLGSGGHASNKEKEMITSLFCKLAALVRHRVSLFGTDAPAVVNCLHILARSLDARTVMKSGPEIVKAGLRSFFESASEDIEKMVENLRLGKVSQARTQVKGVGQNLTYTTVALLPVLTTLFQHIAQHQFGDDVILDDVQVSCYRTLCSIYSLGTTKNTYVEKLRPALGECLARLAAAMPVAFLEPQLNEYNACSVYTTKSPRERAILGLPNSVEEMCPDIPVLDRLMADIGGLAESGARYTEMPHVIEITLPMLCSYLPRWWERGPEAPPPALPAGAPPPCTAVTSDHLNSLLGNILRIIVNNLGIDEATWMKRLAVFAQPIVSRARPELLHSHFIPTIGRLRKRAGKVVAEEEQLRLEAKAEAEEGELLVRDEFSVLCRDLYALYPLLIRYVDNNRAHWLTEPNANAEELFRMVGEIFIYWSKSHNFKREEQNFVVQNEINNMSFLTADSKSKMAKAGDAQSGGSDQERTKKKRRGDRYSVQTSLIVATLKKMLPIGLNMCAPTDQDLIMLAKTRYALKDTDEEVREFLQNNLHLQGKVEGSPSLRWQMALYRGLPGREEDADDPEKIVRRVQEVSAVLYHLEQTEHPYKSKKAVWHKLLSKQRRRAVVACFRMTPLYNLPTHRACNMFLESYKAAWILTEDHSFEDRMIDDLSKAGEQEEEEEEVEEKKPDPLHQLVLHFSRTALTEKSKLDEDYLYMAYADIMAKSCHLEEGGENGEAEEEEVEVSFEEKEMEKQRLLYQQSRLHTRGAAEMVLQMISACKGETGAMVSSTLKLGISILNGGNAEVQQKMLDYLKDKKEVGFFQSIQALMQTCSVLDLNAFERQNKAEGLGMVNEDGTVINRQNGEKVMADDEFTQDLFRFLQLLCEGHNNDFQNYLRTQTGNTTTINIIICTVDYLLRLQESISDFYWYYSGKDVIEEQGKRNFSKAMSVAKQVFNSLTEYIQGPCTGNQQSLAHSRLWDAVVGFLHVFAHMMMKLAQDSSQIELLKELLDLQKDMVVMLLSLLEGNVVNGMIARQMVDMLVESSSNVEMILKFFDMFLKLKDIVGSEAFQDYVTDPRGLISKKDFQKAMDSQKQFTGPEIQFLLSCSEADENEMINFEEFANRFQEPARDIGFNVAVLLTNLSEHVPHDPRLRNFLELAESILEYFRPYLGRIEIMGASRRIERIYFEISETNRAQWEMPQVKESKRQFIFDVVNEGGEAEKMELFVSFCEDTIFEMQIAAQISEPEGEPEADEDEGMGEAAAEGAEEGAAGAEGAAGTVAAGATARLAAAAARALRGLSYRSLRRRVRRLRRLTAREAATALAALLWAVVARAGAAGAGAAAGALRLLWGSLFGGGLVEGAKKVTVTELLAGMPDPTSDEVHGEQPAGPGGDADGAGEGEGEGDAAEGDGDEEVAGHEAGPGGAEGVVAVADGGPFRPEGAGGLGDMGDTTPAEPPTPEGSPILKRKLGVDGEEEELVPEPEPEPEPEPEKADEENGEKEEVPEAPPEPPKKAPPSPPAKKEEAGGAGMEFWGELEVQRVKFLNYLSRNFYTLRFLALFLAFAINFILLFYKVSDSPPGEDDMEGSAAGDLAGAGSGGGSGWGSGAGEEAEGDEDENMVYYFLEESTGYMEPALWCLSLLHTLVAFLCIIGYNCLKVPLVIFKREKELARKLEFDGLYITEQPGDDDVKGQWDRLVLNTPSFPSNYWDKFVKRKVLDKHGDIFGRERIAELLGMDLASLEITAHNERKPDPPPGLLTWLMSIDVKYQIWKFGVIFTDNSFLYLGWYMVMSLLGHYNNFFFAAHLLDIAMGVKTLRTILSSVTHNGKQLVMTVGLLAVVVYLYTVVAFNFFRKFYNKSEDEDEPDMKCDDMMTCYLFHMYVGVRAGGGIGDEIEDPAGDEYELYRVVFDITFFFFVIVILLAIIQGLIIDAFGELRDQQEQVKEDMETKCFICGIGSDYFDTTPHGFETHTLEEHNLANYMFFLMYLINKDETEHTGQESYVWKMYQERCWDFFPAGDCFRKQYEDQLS

With φ-Xibalbin3-Xt3a the “channel activity during exposure” value (RyR2) was “no significant change in activity during exposure to the toxin”, the channel activity (RyR2; 1 nM and 10 nM) was “weak trend towards increased activity” and the “openings to the maximum conductance” value (RyR2; 1 nM to 1 μM) was “did not show any consistent changes in openings to the maximum conductance”. For the same substance, the “substate level, % of maximum conductance” value (RyR2; 10 nM Xt3a, −40 mV, prolonged gating to substate levels) was < 50%, the “rel Po” value (ryanodine receptor; Woearly after 10nM Xt3a vs 1 micoM Ca, CT1124n) was 1.432 and the “rel Po” value (ryanodine receptor; Woearly after 10nM Xt3a vs 1 micoM Ca, CT1124p) was 0.937. For the same substance, the “rel Po” value (ryanodine receptor; Woearly after 10nM Xt3a vs 1 micoM Ca, CT1125p (r7)) was 0.4348, the “rel Po” value (ryanodine receptor; Woearly after 10nM Xt3a vs 1 micoM Ca, CT1125p (r12)) was 0.3976 and the “rel Po” value (ryanodine receptor; Woearly after 10nM Xt3a vs 1 micoM Ca, CT1126n) was 1.917. The “rel Po” value (ryanodine receptor; Woearly after 10nM Xt3a vs 1 micoM Ca, CT1126p) was 0.1557, the “rel Po” value (ryanodine receptor; Woearly after 10nM Xt3a vs 1 micoM Ca, CT1129p) was 0.23 and the “rel Po” value (ryanodine receptor; Woearly after 10nM Xt3a vs 1 micoM Ca, mean of 7 records) was 0.7864. The “rel Po” value (ryanodine receptor; Woearly after 1 microM Xt3a vs 1 micoM Ca, CT1134 n) was 4.4537, the “rel Po” value (ryanodine receptor; Woearly after 1 microM Xt3a vs 1 micoM Ca, CT1134 p) was 3.797 and the “rel Po” value (ryanodine receptor; Woearly after 1 microM Xt3a vs 1 micoM Ca, CT1135 n) was 34.6466. The “rel Po” value (ryanodine receptor; Woearly after 1 microM Xt3a vs 1 micoM Ca, CT1136 n) was 1.926, the “rel Po” value (ryanodine receptor; Woearly after 1 microM Xt3a vs 1 micoM Ca, CT1136 p) was 1.125 and the “rel Po” value (ryanodine receptor; Woearly after 1 microM Xt3a vs 1 micoM Ca, CT1137 n) was 1.615. The “rel Po” value (ryanodine receptor; Woearly after 1 microM Xt3a vs 1 micoM Ca, CT1137p) was 7.5, the “rel Po” value (ryanodine receptor; Woearly after 1 microM Xt3a vs 1 micoM Ca, CT1138n) was 1 and the “rel Po” value (ryanodine receptor; Woearly after 1 microM Xt3a vs 1 micoM Ca, CT1138p) was 8.033. For the same substance, the “rel Po” value (ryanodine receptor; Woearly after 1 microM Xt3a vs 1 micoM Ca, mean (CT1135 p cell empty)) was 7.122, the “rel Po” value (ryanodine receptor; Wolate after 10nM Xt3a vs 1 micoM Ca, CT1124n) was 0.8317 and the “rel Po” value (ryanodine receptor; Wolate after 10nM Xt3a vs 1 micoM Ca, CT1124p) was 12.1926. The “rel Po” value (ryanodine receptor; Wolate after 10nM Xt3a vs 1 micoM Ca, CT1125p (r7)) was 0.7826, the “rel Po” value (ryanodine receptor; Wolate after 10nM Xt3a vs 1 micoM Ca, CT1125p (r12)) was 0.9398 and the “rel Po” value (ryanodine receptor; Wolate after 10nM Xt3a vs 1 micoM Ca, CT1126n) was 0.9549. The “rel Po” value (ryanodine receptor; Wolate after 10nM Xt3a vs 1 micoM Ca, CT1126p) was 1.131, the “rel Po” value (ryanodine receptor; Wolate after 10nM Xt3a vs 1 micoM Ca, CT1129p) was 0.13 and the “rel Po” value (ryanodine receptor; Wolate after 10nM Xt3a vs 1 micoM Ca, mean of 7 records) was 2.423. The “rel Po” value (ryanodine receptor; Wolate after 1 microM Xt3a vs 1 micoM Ca, CT1134 n) was 20.9074, the “rel Po” value (ryanodine receptor; Wolate after 1 microM Xt3a vs 1 micoM Ca, CT1134 p) was 6.491 and the “rel Po” value (ryanodine receptor; Wolate after 1 microM Xt3a vs 1 micoM Ca, CT1135 n) was 34.2069. The “rel Po” value (ryanodine receptor; Wolate after 1 microM Xt3a vs 1 micoM Ca, CT1135 p) was 0.02609, the “rel Po” value (ryanodine receptor; Wolate after 1 microM Xt3a vs 1 micoM Ca, CT1136 n) was 4.7037 and the “rel Po” value (ryanodine receptor; Wolate after 1 microM Xt3a vs 1 micoM Ca, CT1136 p) was 2. The “rel Po” value (ryanodine receptor; Wolate after 1 microM Xt3a vs 1 micoM Ca, CT1137 n) was 0.6923, the “rel Po” value (ryanodine receptor; Wolate after 1 microM Xt3a vs 1 micoM Ca, CT1137p) was 0.75 and the “rel Po” value (ryanodine receptor; Wolate after 1 microM Xt3a vs 1 micoM Ca, CT1138n) was 2.952. The “rel Po” value (ryanodine receptor; Wolate after 1 microM Xt3a vs 1 micoM Ca, CT1138p) was 2.133 and the “rel Po” value (ryanodine receptor; Wolate after 1 microM Xt3a vs 1 micoM Ca, mean of 10 records) was 7.486.
